Legend:
[1] = target: T1, panel of 442 kinases (Homo sapiens, UniProt P35968); assay type: binding; details: kinase VEGFR2; compound concentration 10 µM
T1 construct: purchased KINOMEscan
Text: (§1) We assessed the selectivity of members of this scaffold using the KINOMEscan methodology across a near comprehensive panel of 442 kinases [[18,27]].

[2] = target: T2, panel of 442 kinases (Homo sapiens, UniProt O95382); assay type: binding; details: Compound Concentration 10 µM
T2 construct: purchased KINOMEscan
T2 sequence (O95382 1-1288): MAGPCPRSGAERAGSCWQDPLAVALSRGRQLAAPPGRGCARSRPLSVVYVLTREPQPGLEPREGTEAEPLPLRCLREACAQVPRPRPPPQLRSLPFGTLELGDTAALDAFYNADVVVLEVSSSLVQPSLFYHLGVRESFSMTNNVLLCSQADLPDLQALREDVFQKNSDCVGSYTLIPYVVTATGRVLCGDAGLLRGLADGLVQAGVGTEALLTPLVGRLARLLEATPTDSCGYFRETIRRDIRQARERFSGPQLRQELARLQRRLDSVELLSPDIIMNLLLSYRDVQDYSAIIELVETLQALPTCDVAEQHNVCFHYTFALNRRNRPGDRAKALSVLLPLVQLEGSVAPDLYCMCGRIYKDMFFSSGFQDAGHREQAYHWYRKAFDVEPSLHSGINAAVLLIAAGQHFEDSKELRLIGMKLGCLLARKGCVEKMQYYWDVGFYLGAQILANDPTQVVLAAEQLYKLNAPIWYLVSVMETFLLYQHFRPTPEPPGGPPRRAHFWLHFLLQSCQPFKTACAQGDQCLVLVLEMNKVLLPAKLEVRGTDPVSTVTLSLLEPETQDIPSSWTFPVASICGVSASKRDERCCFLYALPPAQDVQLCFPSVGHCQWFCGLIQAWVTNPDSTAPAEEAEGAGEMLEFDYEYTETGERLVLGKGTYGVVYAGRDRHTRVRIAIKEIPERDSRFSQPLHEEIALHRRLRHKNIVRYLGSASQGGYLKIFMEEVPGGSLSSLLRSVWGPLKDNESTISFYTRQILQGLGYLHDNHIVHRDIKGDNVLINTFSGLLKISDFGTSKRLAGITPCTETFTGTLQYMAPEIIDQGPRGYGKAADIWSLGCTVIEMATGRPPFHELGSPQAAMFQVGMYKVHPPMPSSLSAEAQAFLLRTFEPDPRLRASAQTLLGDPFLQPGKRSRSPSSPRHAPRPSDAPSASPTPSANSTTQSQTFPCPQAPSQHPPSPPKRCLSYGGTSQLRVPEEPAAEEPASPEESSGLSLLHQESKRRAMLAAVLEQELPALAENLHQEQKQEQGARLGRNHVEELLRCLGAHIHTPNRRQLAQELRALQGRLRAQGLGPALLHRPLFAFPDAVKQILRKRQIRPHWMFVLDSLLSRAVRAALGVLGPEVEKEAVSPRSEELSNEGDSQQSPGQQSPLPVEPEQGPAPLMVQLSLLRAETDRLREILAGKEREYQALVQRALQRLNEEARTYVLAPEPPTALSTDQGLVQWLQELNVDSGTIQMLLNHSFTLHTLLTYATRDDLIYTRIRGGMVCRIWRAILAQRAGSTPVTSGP
Text: as §1

T1 sequence (P35968 20-1356): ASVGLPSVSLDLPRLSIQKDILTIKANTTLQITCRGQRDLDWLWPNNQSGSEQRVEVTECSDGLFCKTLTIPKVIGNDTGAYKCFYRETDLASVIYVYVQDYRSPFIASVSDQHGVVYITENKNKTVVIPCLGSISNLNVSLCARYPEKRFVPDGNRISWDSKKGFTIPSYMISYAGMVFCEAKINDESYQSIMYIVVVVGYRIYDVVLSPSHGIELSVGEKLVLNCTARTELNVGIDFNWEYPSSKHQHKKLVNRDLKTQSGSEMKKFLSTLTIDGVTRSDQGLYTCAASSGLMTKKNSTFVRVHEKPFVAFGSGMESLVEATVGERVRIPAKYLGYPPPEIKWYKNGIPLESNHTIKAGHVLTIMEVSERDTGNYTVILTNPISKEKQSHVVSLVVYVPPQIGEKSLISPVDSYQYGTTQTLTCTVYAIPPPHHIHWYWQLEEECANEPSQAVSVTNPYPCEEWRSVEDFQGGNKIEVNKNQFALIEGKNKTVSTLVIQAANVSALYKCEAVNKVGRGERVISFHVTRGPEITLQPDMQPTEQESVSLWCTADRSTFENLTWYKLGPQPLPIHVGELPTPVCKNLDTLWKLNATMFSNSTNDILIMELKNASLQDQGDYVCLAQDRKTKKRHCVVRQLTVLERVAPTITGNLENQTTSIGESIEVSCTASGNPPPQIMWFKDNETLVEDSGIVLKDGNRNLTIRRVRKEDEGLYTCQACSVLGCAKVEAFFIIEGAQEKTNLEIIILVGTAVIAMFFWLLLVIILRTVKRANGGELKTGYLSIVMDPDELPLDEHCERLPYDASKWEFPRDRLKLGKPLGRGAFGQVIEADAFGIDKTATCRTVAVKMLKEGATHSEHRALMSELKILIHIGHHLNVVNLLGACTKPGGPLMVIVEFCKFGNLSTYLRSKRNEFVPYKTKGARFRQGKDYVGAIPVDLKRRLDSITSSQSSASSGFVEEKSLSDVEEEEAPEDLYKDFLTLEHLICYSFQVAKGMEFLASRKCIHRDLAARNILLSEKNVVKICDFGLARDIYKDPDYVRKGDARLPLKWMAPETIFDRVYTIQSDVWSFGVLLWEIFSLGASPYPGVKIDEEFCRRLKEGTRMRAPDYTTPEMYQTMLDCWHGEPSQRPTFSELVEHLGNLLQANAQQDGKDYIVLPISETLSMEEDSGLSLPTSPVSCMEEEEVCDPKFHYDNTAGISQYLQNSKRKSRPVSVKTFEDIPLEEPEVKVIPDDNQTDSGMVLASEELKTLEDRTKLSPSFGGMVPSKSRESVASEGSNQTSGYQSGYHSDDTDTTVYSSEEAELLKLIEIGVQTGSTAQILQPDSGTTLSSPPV

COc1cc(C(=O)N2CCC(N3CCN(C)CC3)CC2)ccc1Nc1ncc2c(n1)N(C)c1ccccc1C(=O)N2C [15 (LRRK2-IN-1)]
% Ctrl, VEGFR2 [1]: 84 % Ctrl
KINOMEscan: ASK2 [2]: 100

COc1cc(C(=O)N2CCC(N3CCN(C)CC3)CC2)ccc1Nc1ncc2c(n1)N1CCc3cccc(c31)C(=O)N2C [Compound 24]
% Ctrl, VEGFR2 [1]: 100 % Ctrl

COc1cc(C(=O)N2CCC(N3CCN(C)CC3)CC2)ccc1Nc1ncc2c(n1)N(C1CCCC1)c1ccccc1C(=O)N2C [Compound 25, 11-cyclopentyl-2-((2-methoxy-4-(4-(4-methylpiperazin-1-yl)piperidine-1-carbonyl)phenyl)amino)-5-methyl-5H-benzo[e]pyrimido[5,4-b][1,4]diazepin-6(11H)-one]
% Ctrl, VEGFR2 [1]: 100 % Ctrl
KINOMEscan: ASK2 [2]: 100

CCOc1cc(C(=O)N2CCC(N3CCN(C)CC3)CC2)ccc1Nc1ncc2c(n1)N(C1CCCC1)c1ccccc1C(=O)N2C [Compound 26]
% Ctrl, VEGFR2 [1]: 100 % Ctrl
KINOMEscan: ASK2 [2]: 100

Reference: PMC3914206
